Values quoted from earlier work in patent US6451782B1, “Use of 4-androstene-3alpha,17 beta-diol to increase testosterone levels in humans” (priority 2002, dated 2002).
Read-outs that look alike come from different tables or passages of the source.

How the values were obtained:
[1] = humans
[2] = in-vitro, rat liver preparations
[3] = in-vitro, chicken liver preparations
[4] = humans, intravenous, radio-labeled, urinary metabolites

Structure (SMILES)	time to peak concentration of active hormone (testosterone) ([1]; after administration of the precursor)	period over which testosterone concentrations subsequently decline ([1]; after the peak)	identified metabolites [2]	identified metabolites [3]	metabolic relationship to testosterone [4]	pathway of metabolism to androstane metabolites [4]
C[C@]12CC[C@H]3[C@@H](CCC4=CC(O)CC[C@@]43C)[C@@H]1CC[C@@H]2O (stereo partly drawn) [4-androstene-3,17beta-diol]	≤ 90 min	three to four	androstenedione, epitestosterone and testosterone	androstenedione, epitestosterone and testosterone	direct precursor relationship to testosterone	
C[C@]12CC[C@H]3[C@@H](CCC4=C[C@H](O)CC[C@@]43C)[C@@H]1CC[C@@H]2O [4-androstene-3alpha, 17beta-diol]			androstenedione, epitestosterone and testosterone	androstenedione, epitestosterone and testosterone	direct precursor relationship to testosterone	involved first its conversion to a 3-keto steroid
